Patent publication US20230365546A1, “5-SUBSTITUTED INDOLE 3-AMIDE DERIVATIVES, PREPARATION METHOD AND USE THEREOF” (ORIGIANT PHARMACEUTICAL CO., LTD, priority 2020, published 2023)

How the values were obtained:
[1] = target: RIPK1 (Homo sapiens (Human), UniProt Q13546); assay: In vitro kinase assay (Eurofins Kinase Profiler), IC50; type: biochemical; settings: 0.001-10 μM, read-out: RIPK 1 (IC50)
[2] = system: HT-29 cells; assay: Protection against programmed necrosis of HT-29 cells (TNF α/Smac mimetic/Z-VAD-FMK, CCK8); type: cell-based; settings: Homo sapiens, TNF α/Smac mimetic/Z-VAD-FMK induced 24 h, CCK8, read-out: HT-29 (EC50)
Experimental: In vitro protection against programmed necrosis of HT-29 cells was conducted by ourselves.
DMEM medium was purchased from Gibco Inc., penicillin and streptomycin were purchased from HyClone Inc., TNF α was purchased from PeproTech Inc., Smac mimetic and Z-VAD-FMK were purchased from Selleck Inc., CCK8 was purchased from Medchem Express Inc.
HT-29 cells (colon cancer cells) were cultured in DMEM+10% FBS+Penicillin/Streptomycin medium. During the experiments, HT-29 cells in logarithmic growth phase were harvested, seeded in a 96-well plate at specific numbers per well (typically 8×10^3 cells/well of adherent cells) and cultured overnight in a 37° C., 5% CO2 cell culture incubator. The next day, the compounds to be tested were diluted with culture medium to the corresponding concentrations and added into the corresponding wells of a 96-well plate, with 3 replicate wells for each sample, and a Vehicle control group and a blank Control group containing only culture medium were set at the same time. […] The absorbance was measured at 495 nm wavelength using a microplate reader, and the protection rate of the drug on the cells necrosis was calculated according to the following formula:
Protection rate of cell necrosis=[(X−C0)/(C−C0)]×100%
Wherein, C, C0, and X represent the mean absorbance values of the Vehicle control group, Blank control group and Drug treatment group, respectively.

RIPK1, sequence (Q13546 whole entry): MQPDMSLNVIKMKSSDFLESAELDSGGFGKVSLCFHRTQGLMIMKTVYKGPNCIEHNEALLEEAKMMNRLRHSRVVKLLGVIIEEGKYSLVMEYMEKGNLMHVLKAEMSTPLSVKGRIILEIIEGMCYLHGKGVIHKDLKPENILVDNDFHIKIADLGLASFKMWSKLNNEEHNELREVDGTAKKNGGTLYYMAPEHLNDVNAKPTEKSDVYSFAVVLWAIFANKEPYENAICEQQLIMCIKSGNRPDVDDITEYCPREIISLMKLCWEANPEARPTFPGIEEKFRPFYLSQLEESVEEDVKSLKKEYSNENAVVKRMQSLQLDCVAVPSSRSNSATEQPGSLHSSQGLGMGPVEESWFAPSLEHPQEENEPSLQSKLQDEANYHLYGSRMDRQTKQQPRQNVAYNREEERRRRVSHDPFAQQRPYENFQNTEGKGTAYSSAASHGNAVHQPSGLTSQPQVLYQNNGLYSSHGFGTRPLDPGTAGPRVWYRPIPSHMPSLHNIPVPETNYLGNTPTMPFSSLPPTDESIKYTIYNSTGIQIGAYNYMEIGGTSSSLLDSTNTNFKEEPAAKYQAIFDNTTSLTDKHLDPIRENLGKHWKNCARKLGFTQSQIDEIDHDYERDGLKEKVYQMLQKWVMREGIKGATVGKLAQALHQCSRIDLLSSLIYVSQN

| SMILES | IC50 [1] [nM] | EC50 [2] [nM] |
| --- | --- | --- |
| COc1cccc([C@@H](C)NC(=O)c2cn(C)c3ccc(-c4ccn5nc(NC(=O)C(C)C)nc5c4)cc23)c1 [Compound 128] | 100 to 1000 | 100 to 1000 |
| Cn1cc(C(=O)N[C@H]2CCCc3ccccc32)c2cc(-c3ccc4nc(NC(=O)C5CC5)cn4n3)ccc21 [Compound 188] | 100 to 1000 | 100 to 1000 |
| CC(C)(C)c1ccc(CNC(=O)c2c[nH]c3ccc(-c4ccc5nc(NC(=O)C6CC6)sc5c4)cc23)cc1 [Compound 29] | 100 to 1000 | 100 to 1000 |
| C[C@H](NC(=O)c1c[nH]c2ncc(-c3ccc(N4CCOCC4)nc3)cc12)c1cccc(F)c1 [Compound 77] | 100 to 1000 | 100 to 1000 |
| CCCn1cc(C(=O)N[C@@H](C)c2cccc(F)c2)c2cc(-c3ccc4c(NC(=O)C5CC5)n[nH]c4c3)ccc21 [Compound 113] | 1 to 10 | 1 to 10 |
| COc1cc(F)ccc1NC(=O)c1n[nH]c2ccc(-c3ccc4nc(NC(=O)C5CC5)sc4c3)cc12 [Compound 61] | ≥ 1000 | ≥ 1000 |
| C[C@H](NC(=O)c1c[nH]c2ccc(-c3ccc4sc(NC(=O)C5CC5)nc4c3)cc12)c1cccc(F)c1 [Compound 40] | 100 to 1000 | 10 to 100 |
| CCn1cc(C(=O)N[C@@H](C)c2cccc(F)c2)c2cc(-c3ccc4c(NC(=O)C5CC5)n[nH]c4c3)ccc21 [Compound 111] | 1 to 10 | < 1 |
| COc1ccc(CNC(=O)c2cn(C)c3ccc(-c4ccc5nc(NC(=O)C6CC6)sc5c4)cc23)cc1OC [Compound 65] | 100 to 1000 | 10 to 100 |
| Cn1cc(C(=O)N2C(CO)CC[C@H]2c2ccc(F)cc2)c2cc(-c3ccn4nc(NC(=O)C5CC5)nc4c3)ccc21 (stereo partly drawn) [Compound 202] | ≥ 1000 | 10 to 100 |
| CCn1cc(C(=O)N[C@H](c2ccc(F)cc2)C2CC2)c2cc(-c3ccn4nc(NC5CC5)nc4c3)ccc21 [Compound 214] | ≥ 1000 | ≥ 1000 |
| CCn1cc(C(=O)N[C@H](c2ccc(F)cc2)C2CC2)c2cc(-c3ccn4nc(NC(=O)C5CC5)nc4c3)ccc21 [Compound 200] | 10 to 100 | < 1 |
| C[C@H](NC(=O)c1c[nH]c2ccc(-c3ccc4c(N)ncnn34)cc12)c1cccc(F)c1 [Compound 83] | 100 to 1000 | 100 to 1000 |
| O=C(NCc1ccc2[nH]ccc2c1)c1c[nH]c2ccc(-c3ccc4nc(NC(=O)C5CC5)sc4c3)cc12 [Compound 87] | ≥ 1000 | ≥ 1000 |
| COCC(=O)Nc1nc2ccc(-c3ccc4c(c3)c(C(=O)N[C@@H](C)c3cccc(F)c3)cn4C)nc2s1 [Compound 91] | 100 to 1000 | 100 to 1000 |
| O=C(NCc1ccc(N2CCOCC2)cc1)c1c[nH]c2ccc(-c3ccc4nc(NC(=O)C5CC5)sc4c3)cc12 [Compound 93] | ≥ 1000 | ≥ 1000 |
| C[C@H](NC(=O)c1cn(C)c2ccc(-c3ccn4nc(NC(=O)C(C)(C)CCl)nc4c3)cc12)c1cccc(F)c1 [Compound 148] | ≥ 1000 | ≥ 1000 |

| SMILES | IC50 [1] [nM] | EC50 [2] [nM] |
| --- | --- | --- |
| C[C@H](NC(=O)c1cn(C)c2ccc(-c3ccc(C(=O)N4CCOCC4)cc3)cc12)c1cccc(F)c1 [Compound 70] | ≥ 1000 | 100 to 1000 |
| CCn1cc(C(=O)N2CCC[C@H]2c2ccc(F)cc2)c2cc(-c3ccn4nc(NC(=O)[C@H](C)O)nc4c3)ccc21 [Compound 205] | 10 to 100 | < 1 |
| CCn1cc(C(=O)N[C@H](c2ccc(F)cc2)C2CC2)c2cc(-c3ccn4nc(NC(=O)CN(C)C)nc4c3)ccc21 [Compound 210] | 10 to 100 | < 1 |
| Cc1cccc(C2CCCN2C(=O)c2cn(C)c3ccc(-c4ccn5nc(NC(=O)C6CC6)nc5c4)cc23)c1 (stereo not drawn) [Compound 189] | 100 to 1000 | 100 to 1000 |
| C[C@H](NC(=O)c1c[nH]c2ccc(-c3ccc(NC(=O)C4CC4)cc3)cc12)c1cccc(F)c1 [Compound 42] | 100 to 1000 | ≥ 1000 |
| CC(C)C(=O)Nc1nc2cc(-c3cn(C)c4ncc(C(=O)N[C@@H](C)c5cccc(F)c5)cc34)ccn2n1 [Compound 159] | 100 to 1000 | 100 to 1000 |
| CCn1cc(C(=O)N[C@@H](CF)c2ccc(F)cc2)c2cc(-c3ccn4nc(NC(=O)C5CC5)nc4c3)ccc21 [Compound 212] | 1 to 10 | < 1 |
| CCCn1cc(C(=O)NCc2cc(F)ccc2F)c2cc(-c3ccc4nc(NC(=O)C5CC5)sc4c3)ccc21 [Compound 57] | 100 to 1000 | 10 to 100 |
| Cc1noc(C)c1-c1cnc2[nH]cc(C(=O)N[C@@H](C)c3cccc(F)c3)c2c1 [Compound 69] | ≥ 1000 | ≥ 1000 |
| O=C(NCc1ccn[nH]1)c1c[nH]c2ccc(-c3ccc4nc(NC(=O)C5CC5)sc4c3)cc12 [Compound 85] | ≥ 1000 | ≥ 1000 |
| C[C@H](NC(=O)c1cn(C)c2ccc(-c3ccnn3C3CCCCO3)cc12)c1cccc(F)c1 (stereo partly drawn) [Compound 71] | ≥ 1000 | ≥ 1000 |
| CCCCn1cc(C(=O)NCc2cc(F)ccc2F)c2cc(-c3ccc4nc(NC(=O)C5CC5)sc4c3)ccc21 [Compound 58] | 100 to 1000 | 100 to 1000 |
| C[C@@H](NC(=O)c1c[nH]c2ccc(-c3ccc4nc(NC(=O)C5CC5)sc4c3)cc12)c1cccc(Cl)c1 [Compound 36] | 100 to 1000 | 100 to 1000 |
| O=C(NCc1cccc(C(F)(F)F)c1)c1c[nH]c2ccc(-c3ccc4nc(NC(=O)C5CC5)sc4c3)cc12 [Compound 8] | 10 to 100 | 1 to 10 |
| CC(C)Cn1cc(C(=O)N[C@@H](C)c2cccc(F)c2)c2cc(-c3ccc4c(NC(=O)C5CC5)n[nH]c4c3)ccc21 [Compound 115] | 1 to 10 | 10 to 100 |
| O=C(NCc1ccc(N2CCOCC2)cc1)c1c[nH]c2ccc(-c3ccn4nc(NC(=O)C5CC5)nc4c3)cc12 [Compound 97] | ≥ 1000 | ≥ 1000 |

The next lines start with results.

| IC50 [1] [nM] | SMILES | EC50 [2] [nM] |
| --- | --- | --- |
| 1 to 10 | C[C@H](NC(=O)c1cn(C)c2ccc(-c3ccn4nc(NC(=O)C5CC(F)(F)C5)nc4c3)cc12)c1cccc(F)c1 [Compound 146] | < 1 |
| 10 to 100 | O=C(NCc1ccccc1F)c1c[nH]c2ccc(-c3ccc4nc(NC(=O)C5CC5)sc4c3)cc12 [Compound 21] | 1 to 10 |
| 10 to 100 | COc1ccc(CNC(=O)c2c[nH]c3ccc(-c4ccc5nc(NC(=O)C6CC6)sc5c4)cc23)cc1 [Compound 1] | 10 to 100 |
| 10 to 100 | CC(NC(=O)c1cn(C)c2ccc(-c3ccn4nc(NC(=O)C5CC5)nc4c3)cc12)c1ccc(F)c(F)c1 (stereo not drawn) [Compound 167] | 10 to 100 |
| 10 to 100 | C[C@H](NC(=O)c1c[nH]c2ccc(-c3ccc4nc(NC(=O)C(C)(C)C)sc4c3)cc12)c1cccc(F)c1 [Compound 50] | 10 to 100 |
| 10 to 100 | C[C@H](NC(=O)c1cn(C)c2ccc(-c3ccn4nc(N)nc4c3)cc12)c1cccc(F)c1 [Compound 141, (S)-5-(2-amino-[1,2,4]triazolo[1,5-a]pyridin-7-yl)-N-(1-(3-fluorophenyl)ethyl)-1-methyl-1H-indole-3-carboxamide] | 1 to 10 |
| 10 to 100 | Cc1cccc(CNC(=O)c2c[nH]c3ccc(-c4ccc5nc(NC(=O)C6CC6)sc5c4)cc23)c1 [Compound 15] | 10 to 100 |
| 10 to 100 | C[C@H](NC(=O)c1cn(C)c2ccc(-c3ccc4c(C(=O)NC5CC5)c[nH]c4c3)cc12)c1cccc(F)c1 [Compound 118] | 1 to 10 |
| 10 to 100 | CC(C)C(=O)Nc1nc2cc(-c3ccc4c(c3)c(C(=O)NC(C)c3cccc(F)c3)cn4C)ccn2n1 (stereo not drawn) [Compound 124] | 1 to 10 |
| 10 to 100 | C[C@H](NC(=O)c1c[nH]c2ccc(-c3ccc4nc(NC(=O)C5CC5)sc4n3)cc12)c1cccc(F)c1 [Compound 88] | 1 to 10 |
| 1 to 10 | C[C@H](NC(=O)c1cn(C)c2ccc(-c3ccn4nc(NC(=O)N5CCC(O)CC5)nc4c3)cc12)c1cccc(F)c1 [Compound 170] | < 1 |
| 10 to 100 | C[C@H](NC(=O)c1c[nH]c2ccc(-c3ccc4nc(NC(=O)C5CC5)[nH]c4c3)cc12)c1cccc(F)c1 [Compound 81] | 100 to 1000 |
| 10 to 100 | CC(C)C(=O)Nc1nc2cc(-c3ccc4c(c3)c(C(=O)N[C@@H](C)c3ccccn3)cn4C)ccn2n1 [Compound 137] | < 1 |
| 10 to 100 | C[C@H](NC(=O)c1c[nH]c2ccc(-c3ccc4nc(NC(=O)C5CC5)sc4c3)cc12)c1cccc(Cl)c1 [Compound 37] | 1 to 10 |
| 1 to 10 | C[C@H](NC(=O)c1cn(C)c2ccc(-c3ccn4nc(NC(=O)N5CCNCC5)nc4c3)cc12)c1cccc(F)c1 [Compound 178] | 1 to 10 |
| 10 to 100 | CC(C)C(=O)Nc1nc2cc(-c3ccc4c(c3)c(C(=O)NC(C)(C)c3ccccc3)cn4C)ccn2n1 [Compound 123] | 1 to 10 |
| 1 to 10 | CCn1cc(C(=O)N2CCC[C@H]2c2ccc(F)cc2)c2cc(-c3ccn4nc(NC(=O)C5CC5)nc4c3)cnc21 [Compound 197] | < 1 |
| 1 to 10 | CC(C)CNc1nc2cc(-c3ccc4c(c3)c(C(=O)N[C@@H](C)c3cccc(F)c3)cn4C)ccn2n1 [Compound 171] | < 1 |
